We go through one molecule from paper PMC4961418, “A Selective Irreversible Inhibitor of Furin Does Not Prevent Pseudomonas Aeruginosa Exotoxin A-Induced Airway Epithelial Cytotoxicity” (PLoS ONE, 2016).

In the test the target is cathepsin B (Homo sapiens, UniProt P07858). Briefly: Cathepsin B activity assay. The class given is biochemical. The note with it: cathepsin B, N = 3. How it is done: Fig 3 Comparison of QUB-F1 and furin I versus cathepsin B. Cathepsin B activity was assessed in the presence or absence of various concentrations of QUB-F1 or furin I (N = 3). Data represent mean ± s.e.m.

Peptide text beside a SMILES is read from it. * marks the point of attachment. Decanoyl = CCCCCCCCCC(=O)*; CH2Cl = ClC*

For `CCCCCCCCCC(=O)N[C@@H](CCCNC(=N)N)C(=O)N[C@H](C(=O)N[C@@H](CCCCN)C(=O)N[C@@H](CCCNC(=N)N)C(=O)CCl)C(C)C` [furin I, Decanoyl-RVKR-chloromethylketone (CMK), reference compound] (Decanoyl-RVKR-CH2Cl), the concentration for half-maximal inhibition (IC50) (commonly the concentration that inhibits the measured activity by half) worked out at 56 nM.
